These are literature values, as cited in patent US20240122923A1, “METHODS OF TREATING HIDRADENITIS SUPPURATIVA” (AbbVie Inc., priority 2022, published 2024).

The test system of the data set is HS. To be noted: 24-week treatment period; cited from earlier work.

Regarding etanercept, the “improvement of HS” value is “failed to show improvement of HS”.
